Where two headings read alike, the source gives them in different places.
Assays:
[1] = MIRACL trial: primary efficacy measure (recurrent ischemic events) over 16 weeks; format: in vivo, human; conditions: 2442 patients with baseline data, 16-week follow-up
Protocol: (§1) The MIRACL study design was previously published. Briefly, the study recruited 3086 patients with unstable angina or non-Q-wave acute myocardial infarction between 24-96 hours after hospital admission at 122 centers in 19 countries. Patients were randomly assigned to double-blind treatment with atorvastatin 80 mg/day or placebo for 16 weeks. The primary efficacy measure was the time to first occurrence of death, nonfatal acute myocardial infarction, cardiac arrest with resuscitation, or worsening angina with new objective evidence of ischemia and requiring emergency re-hospitalization. […] Patients were analyzed on an intention-to-treat basis.
(§2) Since the baseline and Week 16 distributions of the OxLDL markers were positively skewed, log-transformed values were used in the statistical models and analyses and antilog-transformed for descriptive statistics yielding geometric means and 95% confidence intervals (CI) for baseline, Week 16 and percent change from baseline to Week 16. […] For each marker, the logistic regression model included terms for log-transformed marker and randomized treatment assignment; odds ratios were expressed as the relative odds for each one unit increase in the log-transformed marker. Pearson correlations were calculated to summarize the relationship between OxPL/apoB and Lp(a) at baseline and at Week 16. […]

[2] = test system: oxidized phospholipids (OxPL) on apoB-100 particles; assay: OxLDL-E06 chemiluminescent ELISA (OxPL/apoB and Total apoB-OxPL) in plasma; format: in vivo, human
Protocol: (§3) The MIRACL study design was previously published. Briefly, the study recruited 3086 patients with unstable angina or non-Q-wave acute myocardial infarction between 24-96 hours after hospital admission at 122 centers in 19 countries. Patients were randomly assigned to double-blind treatment with atorvastatin 80 mg/day or placebo for 16 weeks. The primary efficacy measure was the time to first occurrence of death, nonfatal acute myocardial infarction, cardiac arrest with resuscitation, or worsening angina with new objective evidence of ischemia and requiring emergency re-hospitalization. 2739 patients completed the entire 16 week follow-up period, of whom 2442 had baseline blood samples and 2341 had baseline and Week 16 blood samples available for analysis. Blood was collected in EDTA and stored at −70° C. until analysis. Patients were analyzed on an intention-to-treat basis.
(§4) Chemiluminescent ELISA was used to measure OxLDL markers (FIG. 1A-1C). All samples for a given assay were run in a single assay and internal controls consisting of high and low standard plasma samples were included to detect potential variations between microtitration plates. Each sample was assayed in triplicate and data are expressed as relative light units (RLU) in 100 milliseconds. The intra-assay coefficients of variation for all assays were 6-10%.
OxLDL-E06 is a measure of the content of oxidized phospholipids (OxPL) per apoB-100 particle using the murine monoclonal antibody E06, which specifically binds to the phosphorylcholine head group of oxidized but not native phospholipids. A 1:50 dilution of plasma in phosphate-buffered saline (PBS) is added to microtiter wells coated with the monoclonal antibody MB47 (5 μg/ml), which specifically binds apoB-100 particles. Under these conditions, a saturating amount of apoB-100 is added to each well and consequently an equal number of apoB-100 particles are captured in each well for all assays. The content of OxPL per apoB-100 is then determined with biotinylated E06. In a previous study we directly measured the amount of apoB-100 bound in each well by the degree of binding of a biotinylated anti-apoB-100 antibody, and compared the OxPL RLU values alone to the ratio of OxPL RLU/apoB-100 RLU and found a correlation of r^2=0.99 (n=1500 samples). Therefore, we arbitrarily assigned the apoB-100 RLU value in the denominator as 1 and report the OxPL/apoB values as OxPL RLU counts only. Note that by design, this assay normalizes the OxPL content per apoB-100 particle and is therefore independent of plasma apoB-100 (and thus LDL-cholesterol) levels.
(§5) The data for OxLDL-E06 and apoB-IC are presented in two ways: 1) as OxPL/apoB and IC/apoB, which specifically quantifies the content of OxPL and IC, respectively, on each captured apoB-100 particle, and 2) as Total apoB-OxPL and Total apoB-IC, which reflects the OxPL and IC content on all apoB-100 containing particles in plasma, by multiplying the plasma “OxPL/apoB” and “IC/apoB” value by the plasma apoB-100 levels measured independently as noted below.
Since the baseline and Week 16 distributions of the OxLDL markers were positively skewed, log-transformed values were used in the statistical models and analyses and antilog-transformed for descriptive statistics yielding geometric means and 95% confidence intervals (CI) for baseline, Week 16 and percent change from baseline to Week 16. […]

[3] = test system: apoB-100 immune complexes; assay: Apolipoprotein B-100 immune complexes (IC/apoB and Total apoB-IC, IgG and IgM) chemiluminescent ELISA in plasma; format: in vivo, human
Protocol: as §3, §4, §5
(§6) Plasma titers of IgG and IgM apoB-IC and malondialdehyde (MDA-LDL) (1:200 plasma dilution) autoantibodies and apoB-IC were measured as previously described.
Since the baseline and Week 16 distributions of the OxLDL markers were positively skewed, log-transformed values were used in the statistical models and analyses and antilog-transformed for descriptive statistics yielding geometric means and 95% confidence intervals (CI) for baseline, Week 16 and percent change from baseline to Week 16. Inferential analyses included paired-sample t-tests for within treatment group differences in markers at baseline versus Week 16, and independent-sample t-tests for between treatment group differences in markers at Week 16 and between treatment group differences in absolute change in log-transformed markers from baseline to Week 16. Logistic regression models were constructed to summarize the relationships between baseline OxLDL values and the primary efficacy measure of the trial. For each marker, the logistic regression model included terms for log-transformed marker and randomized treatment assignment; odds ratios were expressed as the relative odds for each one unit increase in the log-transformed marker. Pearson correlations were calculated to summarize the relationship between OxPL/apoB and Lp(a) at baseline and at Week 16. Statistical significance was defined as P<0.05.

MDA-LDL autoantibodies = assay: Autoantibodies to MDA-LDL (IgG and IgM) chemiluminescent ELISA in plasma; format: in vivo, human
Protocol: as §3
Chemiluminescent ELISA was used to measure OxLDL markers (FIG. 1A-1C). […] Each sample was assayed in triplicate and data are expressed as relative light units (RLU) in 100 milliseconds. […]
as §6, §2

Lp(a) = assay: Plasma Lp(a) level, chemiluminescent ELISA with antibody LPA4; format: in vivo, human
Protocol: as §1
(§7) Plasma Lp(a) levels were measured by a chemiluminescent ELISA with monoclonal antibody LPA4, as previously described. […] ApoB-100 levels were measured by a commercially available kit (Behring) and CRP levels as previously described.
(§8) Since the baseline and Week 16 distributions of the OxLDL markers were positively skewed, log-transformed values were used in the statistical models and analyses and antilog-transformed for descriptive statistics yielding geometric means and 95% confidence intervals (CI) for baseline, Week 16 and percent change from baseline to Week 16. […] Pearson correlations were calculated to summarize the relationship between OxPL/apoB and Lp(a) at baseline and at Week 16. […]

ApoB-100 = assay: Plasma apoB-100 level (Behring kit); format: in vivo, human
Protocol: as §1, §7, §8

LDL cholesterol [4] = assay: Plasma LDL cholesterol in MIRACL patients; format: in vivo, human
Protocol: as §3, with “MIRACL” left out, “-70°” for “−70°”

[5] = entire MIRACL population, 16 weeks; cited from earlier work
LDL cholesterol [6] = conditions: PROVE-IT, two years' treatment, 80 mg atorvastatin versus 40 mg pravastatin; cited from earlier work
[7] = Week 16, atorvastatin 80 mg/day, ACS patients, geometric mean

CC(C)c1c(C(=O)Nc2ccccc2)c(-c2ccccc2)c(-c2ccc(F)cc2)n1CC[C@@H](O)C[C@@H](O)CC(=O)O [atorvastatin]
patients with a primary endpoint event [1]: 10.7% | OxPL/apoB mean level [2, 7]: 11048 RLU | Total apoB-OxPL mean level [2, 7]: 912 (RLU · mg/dl) × 10^3 | OxPL/apoB relative increase from baseline ([2]; baseline to Week 16, 80 mg/day): 9.5% | Total apoB-OxPL percent change from baseline ([2]; baseline to Week 16, 80 mg/day): −29.7% | OxPL enrichment of apoB particles (OxPL/apoB), absolute difference compared to placebo ([2]; baseline to Week 16 change, atorvastatin vs placebo): 13.4% | IC/apoB IgG mean level [3, 7]: 9048 RLU | IC/apoB IgM mean level [3, 7]: 3933 RLU | Total apoB-IC IgG mean level [3, 7]: 749 (RLU · mg/dl) × 10^3 | Total apoB-IC IgM mean level [3, 7]: 325 (RLU · mg/dl) × 10^3 | IgG IC/apoB relative increase from baseline ([3]; baseline to Week 16, 80 mg/day): 9.6% | IgM IC/apoB relative increase from baseline ([3]; baseline to Week 16, 80 mg/day): 15.4% | Total apoB-IC IgG percent change from baseline ([3]; baseline to Week 16, 80 mg/day): −29.5% | Total apoB-IC IgM percent change from baseline ([3]; baseline to Week 16, 80 mg/day): −25.7% | Autoantibodies to MDA-LDL IgG mean level (MDA-LDL autoantibodies; [7]): 4922 RLU | Autoantibodies to MDA-LDL IgM mean level (MDA-LDL autoantibodies; [7]): 1088 RLU | IgG and IgM MDA-LDL autoantibody level increase (MDA-LDL autoantibodies; baseline to Week 16, range stated for both groups (atorvastatin and placebo)): 9.1-14.4% | Lp(a) mean level (Lp(a); [7]): 13.0 mg/dL | Lp(a) relative increase from baseline (Lp(a); baseline to Week 16, 80 mg/day): 8.8% | ApoB-100 mean level (ApoB-100; [7]): 87 mg/dL | apoB-100 percent change from baseline (ApoB-100; baseline to Week 16, 80 mg/day): −33.0% | LDL cholesterol level after treatment (LDL cholesterol [4]; Week 16 (from 124±34 at baseline), 80 mg/day): 72 ± 35 mg/dL | reduction in LDL cholesterol (LDL cholesterol [4]; baseline to Week 16, 80 mg/day): 42% | patients with a primary endpoint event [5]: 14.6% | median LDL cholesterol level (LDL cholesterol [6]): 62 mg/dL
